{"source": "patent US9102623B2", "about": "“Pyridinecarboxamides, useful-plant-protecting composition comprising them and processes for their preparation and their use” (Bayer Cropscience AG, priority 2007, dated 2015)", "tested_on": "barley", "assay": "Post-emergence safener action in barley with the herbicide mesosulfuron-methyl", "assay_type": "in vivo", "conditions": "greenhouse, visual scoring of damage", "text": "The damage to the plants is scored visually using a scale of 0-100%, in comparison to control plants:\n0%=no noticeable effect compared to the untreated plant\n100%=the treated plants dies.\nSeeds or rhizome pieces of monocotyledonous and dicotyledonous harmful plants and crop plants are placed in sandy loam soil in plastic pots, covered with soil and cultivated in the greenhouse under good growth conditions. Alternatively, harmful plants encountered in paddy rice cultivation are cultivated in pots in which the surface of the soil is covered by up to 2 cm of water. Three weeks after sowing, the test plants are treated at the three-leaf stage. The herbicide/safener active compound combinations according to the invention, formulated as emulsion concentrates, and in parallel tests the individual active compounds formulated in a corresponding manner, are sprayed at various dosages at a water application rate of […] (converted) onto the green parts of the plants, and, after the test plants were left to stand in the greenhouse for about 2 to 3 weeks under optimum growth conditions, the effect of the preparations is scored visually in comparison to untreated controls. In the case of rice or harmful plants encountered in the cultivation of rice, the active compounds are also added directly to the irrigation water (application analogously to the so-called granule application) or sprayed onto the plants and into the irrigation water. […]"}
{"smiles": "CNC(=O)c1ccc(C(F)(F)F)[nH]c1=O", "note": "[Compound 1]", "values": [{"measurement": "safener action for the herbicide mesosulfuron-methyl", "result": "good safener action"}]}
{"smiles": "CCCNC(=O)c1ccc(C(F)(F)F)[nH]c1=O", "note": "[Compound 3]", "values": [{"measurement": "safener action for the herbicide mesosulfuron-methyl", "result": "good safener action"}]}
{"smiles": "O=C(NC1CC1)c1ccc(C(F)(F)F)[nH]c1=O", "note": "[Compound 5]", "values": [{"measurement": "safener action for the herbicide mesosulfuron-methyl", "result": "good safener action"}]}
{"smiles": "O=C(NC1CCC1)c1ccc(C(F)(F)F)[nH]c1=O", "note": "[Compound 7, N-Cyclobutyl-2-oxo-6-(trifluoromethyl)-1,2-dihydropyridine-3-carboxamide]", "values": [{"measurement": "safener action for the herbicide mesosulfuron-methyl", "result": "good safener action"}]}
{"smiles": "CC(C)N(C)C(=O)c1ccc(C(F)(F)F)[nH]c1=O", "note": "[Compound 13]", "values": [{"measurement": "safener action for the herbicide mesosulfuron-methyl", "result": "good safener action"}]}
{"smiles": "O=C(NCC1CC1)c1ccc(C(F)(F)F)[nH]c1=O", "note": "[Compound 22]", "values": [{"measurement": "safener action for the herbicide mesosulfuron-methyl", "result": "good safener action"}]}
{"smiles": "O=C(NCC(F)(F)C(F)(F)F)c1ccc(C(F)(F)F)[nH]c1=O", "note": "[Compound 25]", "values": [{"measurement": "safener action for the herbicide mesosulfuron-methyl", "result": "good safener action"}]}
{"smiles": "O=C(NCC(F)(F)F)c1ccc(C(F)(F)F)[nH]c1=O", "note": "[Compound 26]", "values": [{"measurement": "safener action for the herbicide mesosulfuron-methyl", "result": "good safener action"}]}
{"smiles": "CC(C)CNC(=O)c1ccc(C(F)(F)F)[nH]c1=O", "note": "[Compound 30]", "values": [{"measurement": "safener action for the herbicide mesosulfuron-methyl", "result": "good safener action"}]}
{"smiles": "C#CCN(C)C(=O)c1ccc(C(F)(F)F)[nH]c1=O", "note": "[Compound 40]", "values": [{"measurement": "safener action for the herbicide mesosulfuron-methyl", "result": "good safener action"}]}
{"smiles": "COCCNC(=O)c1ccc(C(F)(F)F)[nH]c1=O", "note": "[Compound 57]", "values": [{"measurement": "safener action for the herbicide mesosulfuron-methyl", "result": "good safener action"}]}
{"smiles": "CNC(=O)c1ccc(C(F)(F)Cl)[nH]c1=O", "note": "[Compound 115]", "values": [{"measurement": "safener action for the herbicide mesosulfuron-methyl", "result": "good safener action"}]}
{"smiles": "CCNC(=O)c1ccc(C(F)(F)Cl)[nH]c1=O", "note": "[Compound 116]", "values": [{"measurement": "safener action for the herbicide mesosulfuron-methyl", "result": "good safener action"}]}
{"smiles": "CCCNC(=O)c1ccc(C(F)(F)Cl)[nH]c1=O", "note": "[Compound 117]", "values": [{"measurement": "safener action for the herbicide mesosulfuron-methyl", "result": "good safener action"}]}
{"smiles": "O=C(NC1CC1)c1ccc(C(F)(F)Cl)[nH]c1=O", "note": "[Compound 119]", "values": [{"measurement": "safener action for the herbicide mesosulfuron-methyl", "result": "good safener action"}]}
{"smiles": "CN(C)C(=O)c1ccc(C(F)(F)Cl)[nH]c1=O", "note": "[Compound 123]", "values": [{"measurement": "safener action for the herbicide mesosulfuron-methyl", "result": "good safener action"}]}
{"smiles": "CCN(C)C(=O)c1ccc(C(F)(F)Cl)[nH]c1=O", "note": "[Compound 124]", "values": [{"measurement": "safener action for the herbicide mesosulfuron-methyl", "result": "good safener action"}]}
{"smiles": "CCN(CC)C(=O)c1ccc(C(F)(F)Cl)[nH]c1=O", "note": "[Compound 128]", "values": [{"measurement": "safener action for the herbicide mesosulfuron-methyl", "result": "good safener action"}]}
{"smiles": "CCN(C(=O)c1ccc(C(F)(F)Cl)[nH]c1=O)C(C)C", "note": "[Compound 130]", "values": [{"measurement": "safener action for the herbicide mesosulfuron-methyl", "result": "good safener action"}]}
{"smiles": "CCCCCNC(=O)c1ccc(C(F)(F)Cl)[nH]c1=O", "note": "[Compound 134]", "values": [{"measurement": "safener action for the herbicide mesosulfuron-methyl", "result": "good safener action"}]}
{"smiles": "O=C(NCC1CC1)c1ccc(C(F)(F)Cl)[nH]c1=O", "note": "[Compound 136]", "values": [{"measurement": "safener action for the herbicide mesosulfuron-methyl", "result": "good safener action"}]}
{"smiles": "CC(C)(C)CNC(=O)c1ccc(C(F)(F)Cl)[nH]c1=O", "note": "[Compound 138]", "values": [{"measurement": "safener action for the herbicide mesosulfuron-methyl", "result": "good safener action"}]}
{"smiles": "C#CCN(C)C(=O)c1ccc(C(F)(F)Cl)[nH]c1=O", "note": "[Compound 154]", "values": [{"measurement": "safener action for the herbicide mesosulfuron-methyl", "result": "good safener action"}]}
{"smiles": "CCCC(C)NC(=O)c1ccc(C(F)(F)Cl)[nH]c1=O", "note": "(stereo not shown) [Compound 157]", "values": [{"measurement": "safener action for the herbicide mesosulfuron-methyl", "result": "good safener action"}]}
{"smiles": "CC(C)C(C)NC(=O)c1ccc(C(F)(F)Cl)[nH]c1=O", "note": "(stereo not shown) [Compound 163]", "values": [{"measurement": "safener action for the herbicide mesosulfuron-methyl", "result": "good safener action"}]}
{"smiles": "CCC(CC)NC(=O)c1ccc(C(F)(F)Cl)[nH]c1=O", "note": "[Compound 165]", "values": [{"measurement": "safener action for the herbicide mesosulfuron-methyl", "result": "good safener action"}]}
{"smiles": "COC(CNC(=O)c1ccc(C(F)(F)Cl)[nH]c1=O)OC", "note": "[Compound 168]", "values": [{"measurement": "safener action for the herbicide mesosulfuron-methyl", "result": "good safener action"}]}
{"smiles": "COCCNC(=O)c1ccc(C(F)(F)Cl)[nH]c1=O", "note": "[Compound 171, 6-[Chloro(difluoro)methyl]-N-(2-methoxyethyl)-2-oxo-1,2-dihydropyridine-3-carboxamide]", "values": [{"measurement": "safener action for the herbicide mesosulfuron-methyl", "result": "good safener action"}]}
